One assay relates to E aerogenes. The experiment in a line: Antibiotic Susceptibility Testing (AST) profile by classical microbiology, BAL sample 1. It is filed as cell-based. The settings on record: positive BAL metagenomic sample 1, pathogen E aerogenes. The source says:
Three validation studies of the metagenomic analysis according to the invention have been done. The first validation study relies on in silico simulated metagenomes (validation study 1), the second validation study is a set of 3 positive miniBAL metagenomic samples for which only the culture identification is available (validation study 2), and the third validation study is a set 2 positive BAL metagenomic samples with identification and AST profiles available (validation study 3). For all the evaluation, Kraken is used for taxonomic binning and ARD binning (steps 22, 24) and IDBA-UD is used for assembly (step 28).
In Table 3, one notes that both pipelines give very similar results and results coherent with classical microbiology, at least for identification results. Both pipelines give similar results, probably because the ARD retrieved are present in the reference sequences of the 2 pathogens, ie. AmpC must be present in the reference sequences of E. aerogenes, and ANT(9)-1A in the reference sequences of S aureus.

In another assay the test system is S aureus. The experiment in a line: Antibiotic Susceptibility Testing (AST) profile by classical microbiology, BAL sample 2. Conditions: positive BAL metagenomic sample 2, pathogen S aureus. It is filed as cell-based.

The results in this text go back to patent publication US20190252042A1, “INDENTIFICATION AND ANTIBIOTIC CHARACTERIZATION OF PATHOGENS IN METAGENOMIC SAMPLE” (BIOMÉRIEUX, priority 2016, published 2019).

With `CC1(C)S[C@@H]2[C@H](NC(=O)[C@H](N)c3ccc(O)cc3)C(=O)N2[C@H]1C(=O)O` [amoxiciline], the AST profile result with E aerogenes is given as “resistance: amoxiciline, clavunalate”. Turning to `CO/N=C(\C(=O)N[C@@H]1C(=O)N2C(C(=O)O)=C(COC(N)=O)CS[C@H]12)c1ccco1` [cefuroxime], the AST profile entry with E aerogenes is reported as “intermediate resistance: cefuroxime”.

In the case of `O=C(O)[C@H]1/C(=C/CO)O[C@@H]2CC(=O)N21` [clavunalate], the AST profile entry with E aerogenes is “resistance: amoxiciline, clavunalate”.

Turning to peniciline, in the assay on S aureus, the AST profile result is “resistance: peniciline, clindamycine”.
